PubChem BioAssay AID1508612

experiment: passive permeability, PAMPA, ADME assay (AID 1508612); settings: pH 7.4, 30.0 min, 50.0 µM

| Compound | Papp [×10⁻⁶ cm/s] |
| --- | --- |
| CC(=O)c1c(C)c(C(=O)Nc2cccc([S+](=O)([O-])N3CCCCCC3)c2)n(C)c1C | > 1000 |
| CNc1ncc(-c2cccc3ccccc23)o1 | > 1000 |
| CCc1cccc(NC(=O)c2cc(-c3ccc[nH]3)n[nH]2)c1 | 87.7 |
| CN1CCN(c2cc(-c3nc(Nc4ccc(F)c(F)c4)c4ccccc4n3)ccn2)CC1 | > 1000 |
| O=C(O)Cc1ccc2oc(-c3ccc(NC(=O)/C=C/c4ccc(Br)cc4)c(F)c3)nc2c1 | 6.63 |
| COc1cccc(CNc2ccc(S(=O)(=O)Nc3ccc(N4CCNCC4)nc3)cc2)c1O | 10.7 |
| NC(=O)C1CCN(c2nc(-c3cccc([N+](=O)[O-])c3)cs2)CC1 | 568 |
| COc1cc(C(=S)N2CCN(CCO)CC2)ccc1OCc1ccc(C)cc1 | > 1000 |
| CC1=C(C(=O)Nc2nncs2)C(c2nn(C)cc2Cl)N=C(Nc2nc3ccccc3o2)N1 (stereo not drawn) | > 1000 |
| O=[N+]([O-])c1cccc(CSc2nc3ncc(Br)cc3[nH]2)c1 | 550 |
| COc1cc2cc(CN3CCC(N(C)C)C3)c(-c3cccc(Cl)c3)nc2cc1OC (stereo not drawn) | > 1000 |
| CC(C)(C)NS(=O)(=O)c1ccc(-c2ccc3[nH]nc(N)c3c2)cc1 | 564 |
| Oc1ccc(CNc2ccccc2C(F)(F)F)c2cccnc12 | 17 |
| CC(=O)NCCNC[C@@H]1C=C(C)[C@H](Cc2nnc(-c3ccccc3)o2)C[C@H]1C(C)C | 624 |
| Cc1cc(-c2nnc3n2CCCCC3)c(C)n1-c1cccc2ccccc12 | > 1000 |
| CCOc1ccc(CCNC(=O)c2cc3ncccc3n2Cc2cccc(C)n2)cc1OCC | 491 |
| Cc1noc(C)c1-c1cc2c(cc(C)n2C)c(-c2cnn(C)c2)n1 | 549 |
| NC(=O)NCC(=O)N[C@H]1CC[C@H](Nc2nccc(-c3ccncc3)n2)C1 | < 1 |
| COC(=O)CNC(=O)c1nc(-c2ccc(Cl)cc2Cl)c2cnccn12 | > 1000 |
| O=C1CCCC2=C1C(c1[nH]ncc1Cl)N=C(Nc1nc3cccc(Cl)c3o1)N2 (stereo not drawn) | > 1000 |
| O=C1CCc2ccc(OCCCCN3CCN(c4cccc(Cl)c4Cl)CC3)cc2N1 | > 1000 |
| O=C1CCc2cc(S(=O)(=O)Nc3ccc(F)c(Cl)c3)c(F)cc2N1 | 861 |
| COC1C(OC(=O)c2ccc(C)[nH]2)C(O)C(Oc2ccc3c(O)c(NC(=O)c4ccc(O)c(CC=C(C)C)c4)c(=O)oc3c2Cl)OC1(C)C (stereo not drawn) | 7.04 |
| CCC[C@H](NC(=O)C(C#N)=Cc1cccc(Br)n1)c1ccccc1 | > 1000 |

| Compound | Papp [×10⁻⁶ cm/s] |
| --- | --- |
| Clc1ccc(C2(c3ccc(-c4cn[nH]c4)cc3)CCNCC2)cc1 | 40.5 |
| COc1cc(-c2cn(C)c(=O)c3cnccc23)c(OC)cc1CN(C)C | 28.9 |
| O=C1CCCC2=C1C(c1[nH]ncc1Cl)N=C(Nc1nc3ccccc3o1)N2 (stereo not drawn) | 718 |
| C[C@H]1CN(C(=O)c2nn(C)c3ccccc23)C[C@@H]1c1nc(-c2ccncc2)no1 | 907 |
| COc1cc(C2c3c(oc4cc(C)c(C)cc4c3=O)C(=O)N2CCCN2CCOCC2)ccc1O (stereo not drawn) | 118 |
| CCOC(=O)[C@H]1O[C@H]1C(=O)N[C@@H](CC(C)C)C(=O)NCCC(C)C | 89 |
| CN1CCN(c2ccc(-c3cccc(CN4CCOCC4)c3)cc2NC(=O)c2c[nH]c(=O)cc2C(F)(F)F)CC1 | 3.88 |
| Cc1cccc(C)c1C(=O)Nc1cccc([S+](=O)([O-])N(C)C)c1 | 355 |
| COC(=O)CNC(=O)c1nc(-c2ccc(Cl)nc2)c2ccccn12 | > 1000 |
| O=C(NC[C@H]1Cn2c(-c3ccc(Cl)cc3)cnc2CO1)C1CCCC1 | 108 |
| O=C1Nc2ccccc2/C1=C/c1ccc[nH]1 | 606 |
| CNc1oc(-c2ccc(-c3ccccc3)cc2)nc1C#N | > 1000 |
| CC1=C[C@@H](CNC(C)C)[C@H](C(C)C)C[C@H]1Cc1nnc(-c2ccncc2)o1 | 649 |
| CCN(CCN(C)C)C(=O)C1CCN(S(=O)(=O)c2c(C)noc2/C=C/c2ccccc2F)CC1 | > 1000 |
| CCOC(=O)c1cc(-c2ccco2)nc2c1c(C)nn2CCC#N | 989 |
| Cc1nc(Nc2n[nH]c3c2CN(C(=O)N[C@H](CN(C)C)c2ccccc2)C3(C)C)c2sccc2n1 | 2.31 |
| CC(=O)N1CCN(c2ccc(OCc3nn(C)c(C)c3-c3cccc4c(CCCOc5cc(C)c(Cl)c(C)c5)c(C(=O)O)n(Cc5cccnc5)c34)cc2)CC1 | 370 |
| O=C1CCCC2=C1C(c1ccccc1Cl)N=C(Nc1nc3ccccc3o1)N2 (stereo not drawn) | > 1000 |
| N#Cc1ccc(C(=O)Nc2ccc(Cl)c(-c3nc4cc(Cl)ccc4o3)c2)c(F)c1 | < 1 |
| CC(=O)c1c(C)[nH]c(C(=O)Nc2ccc(Cl)cc2)c1C | 364 |
| CCOC(=O)C1CCN(C(=O)C(C)(C)NC(=O)Nc2ccc(Cl)cc2Cl)CC1 | 725 |
| O=C(NC1CCCc2c1cnn2-c1cccc(O)c1)c1ccccn1 (stereo not drawn) | 836 |
| Cc1cccc(CNc2ccc(S(=O)(=O)Nc3nccs3)cc2)c1O | 7.9 |
| CC(=O)c1ccc(N2CCN(S(=O)(=O)c3ccc4c(c3)CC(=O)N4)CC2)cc1 | 429 |

| Compound | Papp [×10⁻⁶ cm/s] |
| --- | --- |
| COc1cc(-c2nc(-c3c(C)noc3C)cc3c2cc(C)n3CCN(C)C)ccn1 | > 1000 |
| COC(=O)Nc1nc2ccc(SC(C)C)cc2[nH]1 | 433 |
| NC(=O)C1CCN(c2nc(-c3cccc(C(F)(F)F)c3)cs2)CC1 | 566 |
| Cc1cc(C)nc(NC(=S)N2CCN(c3cccc([N+](=O)[O-])c3)CC2)c1 | > 1000 |
| NC(=O)C1CCN(c2nc(-c3cc4ccccc4o3)cs2)CC1 | 66.2 |
| C[C@]1(CO)CN(c2cc(C(=O)Nc3ccc4c(c3)-c3c(c(C(N)=O)nn3-c3ccc(F)cc3)CC4)c(Cl)cn2)C[C@@]1(C)CO | 18.5 |
| Fc1ccc(Nc2nc(Nc3ccncc3)nc3ccccc23)cc1F | 40.4 |
| Fc1ccc(Nc2nc(-c3ccnc4ccccc34)nc3ccccc23)cc1F | 202 |
| C1CCc2nc3c(nc2C1)CCCC3 | 257 |
| CC[C@H](Nc1ncnc2nc[nH]c12)c1nc2cccc(F)c2c(=O)n1-c1ccccc1 | 169 |
| Cc1cc(C)nc(NC(=S)N2CCN(c3cc(C(F)(F)F)nc4ccccc34)CC2)c1 | > 1000 |
| COc1cc2c(C(=O)N3CCN(c4cccc(C(F)(F)F)c4)CC3)cn(CC(C)C)c(=O)c2cc1OC | > 1000 |
| COc1cc([C@@H](CC(=O)O)c2ccc(C)c(CN3C[C@@H](C)Oc4ccccc4S3(=O)=O)c2)cc2nnn(C)c12 | 2.9 |
| O=[N+]([O-])c1ccc(/C=N/n2c(CO)nc3ccccc32)s1 | 269 |
| Cc1cccc(-n2cnc3cc(C(=O)N4CCC(Br)CC4)ccc32)c1 | > 1000 |
| Cc1cccc(-n2ncc3c2CCCC3NC(=O)c2c(F)ccc(F)c2F)c1C (stereo not drawn) | 916 |
| COc1ccc(-c2ccc3ncc(Nc4cccnc4OC)n3n2)cn1 | > 1000 |
| O=C1CN(C(=O)CCC(=O)N2CCc3c(nc4cc(-c5ccccc5)[nH]n4c3=O)C2)c2ccccc2N1 | < 1 |
| CCc1cccc(NS(=O)(=O)c2ccc3c(c2)CC(C)N3C(=O)C2CC2)c1 (stereo not drawn) | > 1000 |
| Cc1ccc(-n2c(C)cc(-c3nnc4n3CCCCC4)c2C)cc1 | > 1000 |
| CCN(CC)CCCCNc1ncc2cc(-c3c(Cl)cccc3Cl)c(NC(=O)NC(C)(C)C)nc2n1 | > 1000 |
| COC(=O)c1ccnc(-c2cc(C(=O)Nc3ccc(C4(N)CC4)cc3)ccn2)c1 | > 1000 |
| CC(C)c1ccccc1-c1ncc(F)c(NC2(c3ccc(-c4cccnc4)cc3)CC2)n1 | > 1000 |

The next lines start with the values.

| Papp [×10⁻⁶ cm/s] | Compound |
| --- | --- |
| < 1 | CCOc1ccc(CCNC(=O)c2cc3sccc3n2Cc2ccccc2)c(F)c1OCC |
| 478 | Cc1ccc(S(=O)(=O)Nc2ccccc2C(=O)Nc2nccs2)cc1 |
| 222 | Cc1ccc(CC(=O)Nc2nc(-c3ccc4c(c3)CCN4C(=O)c3ccccc3C)c(C)s2)cc1C |
| 38.2 | Cc1ccc(S(=O)(=O)Nc2cnccc2C(=O)Nc2nc(-c3ccc(Cl)cc3)cs2)cc1 |
| 445 | COc1ccc(CN2CCc3c(c(=O)n4ncc(C(=O)N5CCN(c6ccccc6OC)CC5)c4n3C)C2)cc1 |
| 21.5 | O=C(O)Cn1c(C(=O)Nc2nc(-c3ccccc3Cl)cs2)cc2ccccc21 |
| 95.3 | CCc1ccccc1-n1c(SCC(=O)Nc2ccc(C)cc2)nc2n[nH]c(C)c2c1=N |
| 292 | O=C(NCCCN1CCCC1=O)c1ccc(-c2ncc3cnc(-c4ccccc4)cn23)cc1 |
| 40.6 | CC(=O)NCCNC(=O)c1ccc(-c2ncc3cnc(-c4cccc(F)c4)cn23)cc1 |
| 472 | COc1ncccc1-c1cc2[nH]ccc2c(C(=O)NCc2c(C)cc(C)[nH]c2=O)n1 |
| 824 | Cc1ccc(-c2ccc(CNc3nc(-c4ccccc4C(C)C)ncc3C)cc2)cn1 |
| 771 | O=C(Nc1ccc2oc(-c3cccnc3)nc2c1)c1ccc(-c2ccccc2)o1 |
| 2.8 | NC(=O)COc1ccc(C2CC(=O)Nc3n[nH]c(Nc4ccccc4)c32)cc1 (stereo not drawn) |
| > 1000 | O=C(Nc1cncc(Cc2ccccc2)c1)c1ccc(-c2cccc([N+](=O)[O-])c2)o1 |
| 664 | Oc1ccc(Nc2nc(-c3ccncc3)nc3ccccc23)cc1F |
| 314 | O=C(Nc1nc(-c2ccccc2)cs1)c1ccncc1NS(=O)(=O)c1ccc(N2CCCC2=O)cc1 |

| Papp [×10⁻⁶ cm/s] | Compound |
| --- | --- |
| > 1000 | CC1Cc2cc(S(=O)(=O)NCc3ccc(N(C)C)cc3)ccc2N1C(=O)C1CCC1 (stereo not drawn) |
| < 1 | COc1ccc(S(=O)(=O)N2CCCCCC2)cc1NC(=O)Cc1n[nH]c(=O)c2ccccc12 |
| 793 | CCOc1ccccc1N1CC(c2nc3ccccc3n2CCOc2ccc(C(C)(C)C)cc2)CC1=O (stereo not drawn) |
| 586 | COc1cccc(CNc2ccc(S(=O)(=O)Nc3ccccn3)cc2)c1O |
| 685 | COc1ccc(-n2nc(C3CCCN(C(=O)c4ccc(C)cc4)C3)[nH]c2=O)cc1 (stereo not drawn) |
| 724 | Cc1ccc(S(=O)(=O)Nc2cnccc2C(=O)Nc2nc(-c3ccccc3)cs2)cc1 |
| 9.09 | O=S(=O)(Nc1nc2n(n1)C(c1ccccc1)C=C(c1ccc(Cl)cc1)N2)c1ccccc1 (stereo not drawn) |
| 3.06 | COc1ccc(-c2c(-c3cc(C(=O)O)ccn3)ncn2C)cc1 |
| > 1000 | CCOc1ccc(CCNC(=O)c2cc3ccccc3n2C)cc1OCC |
| > 1000 | COc1cc(/C=C2\C(=O)Nc3ccccc32)ccc1O |
| 498 | O=C(CSc1ccccc1)Nc1nnc(COc2ccc(Cl)cc2)s1 |
| 5.1 | CCOc1ccc(-c2nnc(SCC(=O)NCc3ccccc3Cl)o2)cc1 |
| 406 | Cc1ccccc1-c1nc(NCc2cccs2)c2ccccc2n1 |
| 883 | CCN1C(=O)c2ccccc2S(=O)c2ccc(C(=O)NCc3ccc(OC)cc3)cc21 (stereo not drawn) |
| > 1000 | CC(C)(C)c1ccc(-c2ccc(=O)n(CC(=O)NCCc3ccccc3)n2)cc1 |
| 799 | CC1CCN(S(=O)(=O)c2ccc3c(ccc(=O)n3CC(=O)NCc3ccc(Cl)cc3)c2)CC1 |
